Test results reported in US5055594A, “Fluorogenic trypotophanase substrates” (Becton, Dickinson and Company, priority 1990, dated 1991).

What was measured:
[1] = test system: tryptophanase; experiment: Reaction of serine-AMC-carbamate with tryptophanase (fluorescence increase); type: biochemical; conditions: 1.19×10^-6 M substrate, pH 8.2, 100 μL of 5.0 mq/mL tryptophanase; excitation 365 nm
Description: To a 1.19×10^-6 M solution of serine-AMC-carbamate dissolved in 100 mM potassium phosphate buffer, pH 8.2 was added 100 μL of a 5.0 mq/mL solution of tryptophanase. Fluorescence increase was measured at 440 nm, with excitation at 365 nm. Starting fluorescence of the serine-AMC-carbamate solution was 26 relative units. After addition of the enzyme, fluorescence at 440 nM increased at a rate of 97 units/minute. […] Fluorescence increase in the absence of enzyme was negligible.

[2] = test system: Citrobacter diversus; experiment: Determination of the indole reaction of microorganisms (substrate on cellulose disks, AMC release); type: cell-based; conditions: for FLUORESCENCE INCREASE (ng AMC/min): 3×10^8 cfu/ml, phosphate buffer pH 8.4 with toluene, ex 365 nm, em 440 nm
Description: (§1) Aliquots of 20 microliters of a 0.5% solution of the substrate of Example I dissolved in dimethylsulfoxide were added to cellulose disks (catalog no. 740-E, Schleicher and Schuell, Inc. Keene, N.H.). The DMSO was removed by vacuum dessication. The dried disks were placed in the wells of a black polystyrene microwell tray. Four of the disks were each inoculated with 25 microliters of a suspension containing 3×10^8 colony forming units per ml of the known indole positive microorganisms Escherichia coli and Citrobacter diversus and the known indole negative microorganisms Klebsiella pneumoniae and Citrobacter freundii. The suspensions were made in phosphate buffer, pH 8.4, containing toluene at a concentration of 2 drops per 5 ml of buffer to permeabilize the bacteria. Four disks were inoculated with buffer alone to serve as controls. The disks were excited at 365 nm using a xenon lamp and fluorescence was measured at 1 minute intervals for 10 minutes at a wavelength of 440 nm using a Fluoroskan II (Flow Laboratories, McLean, Va. 22102) reader. Results from the four tubes for each organism were averaged and are expressed in the Table as nanograms of free AMC released per minute.

[3] = test system: Citrobacter freundii; experiment: as above; type: cell-based; conditions: for FLUORESCENCE INCREASE (ng AMC/min): 3×10^8 cfu/ml, phosphate buffer pH 8.4 with toluene, ex 365 nm, em 440 nm
Description: as §1

[4] = test system: Escherichia coli; experiment: as above; type: cell-based; conditions: for FLUORESCENCE INCREASE (ng AMC/min): 3×10^8 cfu/ml, phosphate buffer pH 8.4 with toluene, ex 365 nm, em 440 nm
Description: as §1

[5] = test system: Klebsiella pneumoniae; experiment: as above; type: cell-based
Description: as §1

SMILES: Cc1cc(=O)oc2cc(NC(=O)OC[C@H](N)C(=O)O)ccc12 [serine-AMC-carbamate]
- Rate of fluorescence increase at 440 nM after addition of the enzyme [1]: 97 units/minute
- Fluorescence increase compared with the control ([2]; C. diversus (indole positive), versus buffer control): much larger fluorescence increases
- FLUORESCENCE INCREASE (ng AMC/min) ([2]; C. diversus strain 404): 5.35 ng AMC/min
- FLUORESCENCE INCREASE (ng AMC/min) ([2]; C. diversus strain 2075): 4.4 ng AMC/min
- Fluorescence increase compared with the control ([3]; C. freundii (indole negative), versus buffer control): about the same fluorescence increase as the control
- FLUORESCENCE INCREASE (ng AMC/min) ([3]; C. freundii strain 2027): 0.8 ng AMC/min
- FLUORESCENCE INCREASE (ng AMC/min) ([3]; C. freundii strain 2058): 0.45 ng AMC/min
- Fluorescence increase compared with the control ([4]; E. coli (indole positive), versus buffer control): much larger fluorescence increases
- FLUORESCENCE INCREASE (ng AMC/min) ([4]; E. coli strain 1W9901N1): 1.53 ng AMC/min
- FLUORESCENCE INCREASE (ng AMC/min) ([4]; E. coli strain 2W0803N1): 1.85 ng AMC/min
- FLUORESCENCE INCREASE (ng AMC/min) ([4]; E. coli strain 4H8162N1): 1.6 ng AMC/min
- FLUORESCENCE INCREASE (ng AMC/min) ([4]; E. coli strain 7W0563N1): 1.7 ng AMC/min
- Fluorescence increase compared with the control ([5]; K. pneumoniae (indole negative), versus buffer control): about the same fluorescence increase as the control
- FLUORESCENCE INCREASE (ng AMC/min) ([5]; K. pneumoniae strain 6N3696N1, 3×10^8 cfu/ml, phosphate buffer pH 8.4 with toluene, ex 365 nm, em 440 nm): 0.5 ng AMC/min
